Laboratory results taken from PMC6681393, “Intra-Nasally Administered Oligopeptide Lunasin Acts as a Possible Anti-Psychotic Agent in Mice Models” (Medicina, 2019).
Entries after “also recorded” stand apart in the source; their conditions may differ.

How the values were obtained:
[1] = test system: PCP-induced hyperlocomotion in ICR mice; experiment: Open field locomotor activity, phencyclidine-induced hyperlocomotion; type: in vivo, male albino ICR mice; settings: PCP 5 mg/kg i.p.; p < 0.0001 vs control; n = 7–8
[2] = target: 5-HT2C receptor; settings: cited from earlier work
Method: (§1) The aims of the present studies were: to test whether lunasin would show an influence on the dopaminergic system after intranasal administration, and to examine the effect(s) of lunasin on serotonin and glutamatergic systems, which could play an essential role in antipsychoti ... || The binding assay was performed by Eurofins Cerep (France) according to Bryant et al., 1996 [15]. Briefly, the binding of lunasin to 5-HT2A and 5-HT2C receptors was estimated on its ability to displace the specific binding of [^125I]DOI on cell membrane suspensions of HEK-293 cells expressing human recombinant 5-HT2A and 5-HT2C receptors. The radioligand [^125I]DOI has high affinity for 5-HT2A (Kd: 0.3 nM) and 5-HT2C (Kd: 0.9 nM) receptors. Lunasin was tested at concentrations of 1, 10 and 100 µM. The results were expressed as a percent of radioligand specific binding (n = 2).

[3] = target: 5-HT2A receptor; settings: cited from earlier work
Method: as §1

[4] = test system: brain monoamine levels, amphetamine-treated mice; experiment: Brain monoamines and metabolites, amphetamine-treated mice (UHPLC-TOF-MS); type: in vivo, male albino ICR mice; settings: amphetamine 3 mg/kg i.p.
[5] = test system: amphetamine-induced hyperlocomotion in ICR mice; experiment: Open field locomotor activity, amphetamine-induced hyperlocomotion; type: in vivo, male albino ICR mice; settings: amphetamine 3 mg/kg i.p.; p = 0.0008 vs control; n = 7–8
[6] = test system: brain monoamine levels, DOI-treated mice; experiment: Brain monoamines and metabolites, DOI-treated mice (UHPLC-TOF-MS); type: in vivo, male albino ICR mice; settings: DOI 3 mg/kg i.p.
[7] = test system: hyper-locomotion; settings: published data; cited from earlier work
Method: The selected DOI dose in our behavioural studies was 3 mg/kg, which according to published data, corresponds to the dose range (0.625-5.0 mg/kg) that induces hyper-locomotion. […] These altered parameters ...

[8] = test system: DOI-induced hyperlocomotion in ICR mice; experiment: Open field locomotor activity, DOI-induced hyperlocomotion; type: in vivo, male albino ICR mice; settings: DOI 3 mg/kg i.p.; p = 0.0033 vs control; n = 7–8
[9] = radioligand affinity quoted in method, Eurofins Cerep, ref Bryant et al., 1996 [15]
[10] = comparison for lunasin, abstract, source not printed there

Cl.c1ccc(C2(N3CCCCC3)CCCCC2)cc1 [PCP, 1-(1-phenylcyclohexyl)piperidine hydrochloride, reference compound]
effect on locomotion versus control [1]: induced hyperlocomotion

COc1cc(CC(C)N)c(OC)cc1I (centres unmarked) [[125I]DOI]
Kd [2, 9]: 0.9 nM | Kd [3, 9]: 0.3 nM

C[C@H](N)Cc1ccccc1 [Amphetamine, d-amphetamine, reference compound]
brain DOPAC concentration [4]: Neither lunasin per se nor amphetamine changed the DOPAC concentration | brain 5-HIAA level ([4]; p < 0.0001): increased brain serotonin and its metabolite 5-HIAA levels | brain dopamine level ([4]; p < 0.0001): markedly increased the dopamine level | brain noradrenaline level ([4]; p < 0.0001): augmented by amphetamine | brain serotonin level ([4]; p < 0.0001): increased brain serotonin and its metabolite 5-HIAA levels | brain HVA level ([4]; p = 0.0079): increased by amphetamine | increase in total walked distance versus control [5]: approximately 2 -fold

COc1cc(CC(C)N)c(OC)cc1I (centres unmarked) [DOI, 1-(2,5-dimethoxy-4-iodophenyl)-2-aminopropane, reference compound]
brain 5-HIAA level [6]: up-regulated levels of serotonin and 5-HIAA; also recorded: considerable elevation of brain levels of serotonin and its metabolite 5-HIAA | brain dopamine concentration [6]: did not change dopamine brain concentrations; also recorded: did not change the dopamine concentration | brain serotonin level [6]: up-regulated levels of serotonin and 5-HIAA; also recorded: considerable elevation of brain levels of serotonin and its metabolite 5-HIAA | brain DOPAC concentration ([6]; p < 0.001): elevated; also recorded: increasing DOPAC levels | brain noradrenaline level ([6]; p < 0.05): decreased by DOI treatment; also recorded: lowered those of HVA and noradrenaline | brain HVA level ([6]; p = 0.0022): decreased by DOI treatment; also recorded: lowered those of HVA and noradrenaline | dose range that induces hyper-locomotion [7]: 0.625 to 5.0 mg/kg | effect on locomotion versus control [8]: induced hyperactivity | receptor affinity, concentration range [2, 10]: nM concentrations | receptor affinity, concentration range [3, 10]: nM concentrations
